Experimental data taken from patent US7732603B2, “Organic compounds as agents for the treatment of aldosterone mediated conditions” (Novartis AG, priority 2002, dated 2010).

Target: T1, aldosterone synthase (Rattus norvegicus, UniProt P30099)
T1 construct: The adrenals are decapsulated to obtain the glomerulosa tissue; The tissue is homogenized in a glass homogenizer; from tissue; host or cells: rat adrenal glomerulosa tissue homogenate (900 x g supernatant), sodium-depleted Sprague-Dawley rats
T1 sequence (P30099 35-510): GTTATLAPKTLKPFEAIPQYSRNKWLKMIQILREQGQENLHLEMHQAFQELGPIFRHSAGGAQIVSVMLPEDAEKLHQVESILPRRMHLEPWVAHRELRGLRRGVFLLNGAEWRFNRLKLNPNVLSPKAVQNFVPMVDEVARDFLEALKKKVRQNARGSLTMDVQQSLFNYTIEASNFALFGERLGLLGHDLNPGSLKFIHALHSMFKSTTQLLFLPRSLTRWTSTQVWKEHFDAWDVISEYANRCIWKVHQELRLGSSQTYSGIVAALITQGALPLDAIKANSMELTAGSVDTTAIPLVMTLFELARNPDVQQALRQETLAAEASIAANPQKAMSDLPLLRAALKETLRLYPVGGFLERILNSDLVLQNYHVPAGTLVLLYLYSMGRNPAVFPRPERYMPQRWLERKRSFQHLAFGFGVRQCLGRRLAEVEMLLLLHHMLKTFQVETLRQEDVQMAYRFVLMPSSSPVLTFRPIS
Assay: aldosterone synthase inhibitory activity in vitro (rat adrenal glomerulosa homogenate, conversion of [3H]corticosterone)
Assay type: biochemical
Conditions: read-out: inhibit the aldosterone synthase activity with an IC50 value
Source text: The aldosterone synthase inhibitory activity in vitro may be determined as follows:
Adult male Sprague-Dawley rats weighing 125-150 g are obtained from Harlan Farms. All animals are caged in pairs and maintained under standard conditions of light and temperature. The animals are placed on a sodium depleted diet (0.01-0.02%) from Harland Teklad, Madison Wis. (cat# TD90228) and maintained on normal drinking water ad libitum. The animals are maintained on this diet for two to four weeks prior to harvesting the adrenal glomerulosa cells. The rats are killed by CO2 inhalation, and the adrenals are immediately removed and placed in the same ice-cold buffer used during homogenization and assay of the enzyme preparation. The adrenals are decapsulated to obtain the glomerulosa tissue. The tissue is homogenized in a glass homogenizer containing Tris assay buffer (8.5 mM MgCl2, 2.7 mM CaCl2, 3.13 mM KCl, 7.59 mM NaCl, 0.1% TEA and 50 mM Tris HCl adjusted to pH 7.4). The homogenate is diluted so that 37.5 mg of glomerulosa tissue is in each mL of buffer. […] The plates are scanned for radioactivity with a Bioscan System 200 Imaging Scanner (Bioscan, Ish. DC). The two products of the aldosterone synthase, 18-OH-corticosterone and aldosterone are scraped and counted in a liquid scintillation counter (Beckman LS6000TA, Beckman Instr., Palo Alto, Calif.).
The IC50s are determined from a logit-log plot (pseudo-Hill plot) according to the equation (see Pratt and Taylor, Eds, “Principles of Drug Action”, Churchill Livingstone Inc, NY (1990)): log P/(100−P)=n log[I][…] where P is the percent competition of specific binding in the presence of a given concentration of inhibitor (I). The slope (Hill Coefficient) and x intercept (IC50) are determined by linear regression of the experimental data. The Km(app) is calculated by a computer program according to the Hanes equation (see Cornish-Bowden, Ed., “Principles of Enzyme Kinetics”, Butterworth & Co., Boston, Mass. (1976)): s/v=Km/V+s/V where Km=Michaelis constant, V=maximum velocity, s=substrate concentration, v=velocity.

IC50 [nM] | Compound
~12 | N#Cc1ccc(C2C(=O)N(CC3CC3)Cc3cncn32)cc1 (stereo not shown) [Example 1, 4-(7-Cyclopropylmethyl-6-oxo-5,6,7,8-tetrahydro-imidazo[1,5-a]pyrazin-5-yl)-benzonitrile]
~4 | N#Cc1ccc(C2C(=O)N(Cc3ccccc3)Cc3cncn32)cc1 (stereo not shown) [Example 3, 4-(7-Benzyl-6-oxo-5,6,7,8-tetrahydro-imidazo[1,5-a]pyrazin-5-yl)-benzonitrile]
~9 | Cl.O=C1C(c2cccc(Br)c2)n2cncc2CN1CC1CC1 (stereo not shown) [Example 32, 5-(3-Bromo-phenyl)-7-cyclopropylmethyl-7,8-dihydro-imidazo[1,5-a]pyrazin-6-one hydrochloride]

Tested on: not given
Assay: not given
Conditions: not given

melting point [°C] | Compound
146 to 147 | N#Cc1ccc(C2C(=O)N(CC3CC3)Cc3cncn32)cc1 (stereo not shown) [Example 1, 4-(7-Cyclopropylmethyl-6-oxo-5,6,7,8-tetrahydro-imidazo[1,5-a]pyrazin-5-yl)-benzonitrile]
163 to 165 | N#Cc1ccc(C2C(=O)N(Cc3ccccc3)Cc3cncn32)cc1 (stereo not shown) [Example 3, 4-(7-Benzyl-6-oxo-5,6,7,8-tetrahydro-imidazo[1,5-a]pyrazin-5-yl)-benzonitrile]
155 to 157 | COc1ccc(CN2Cc3cncn3C(c3ccc(C#N)cc3)C2=O)cc1 (stereo not shown) [Example 9, 4-[7-(4-Methoxy-benzyl)-6-oxo-5,6,7,8-tetrahydro-imidazo[1,5-a]pyrazin-5-yl)-benzonitrile]
168 to 170 | Cc1ccc(CN2Cc3cncn3C(c3ccc(C#N)cc3)C2=O)cc1 (stereo not shown) [Example 10, 4-[7-(4-Methyl-benzyl)-6-oxo-5,6,7,8-tetrahydro-imidazo[1,5-a]pyrazin-5-yl)-benzonitrile]
132 to 135 | N#Cc1ccc(C2C(=O)N(Cc3ccc(F)cc3)Cc3cncn32)cc1 (stereo not shown) [Example 14, 4-[6-Oxo-7-(4-fluoro-benzyl)-5,6,7,8-tetrahydro-imidazo[1,5-a]pyrazin-5-yl]-benzonitrile]
175 to 176 | N#Cc1ccc(C2C(=O)N(Cc3ccc(Cl)c(Cl)c3)Cc3cncn32)cc1 (stereo not shown) [Example 16]
143 to 144 | CN1Cc2cncn2C(c2ccc(Br)cc2)C1=O (stereo not shown) [Example 20, 5-(4-Bromo-phenyl)-7-methyl-7,8-dihydro-imidazo[1,5-a]pyrazin-6-one]
123 to 124 | COc1ccc(CN2Cc3cncn3C(c3ccc(Br)cc3)C2=O)cc1 (stereo not shown) [Example 21, 5-(4-Bromo-phenyl)-7-(4-methoxy-benzyl)-7,8-dihydro-imidazo[1,5-a]pyrazin-6-one]
249 to 250 | Cl.O=C1C(c2cccc(Br)c2)n2cncc2CN1CC1CC1 (stereo not shown) [Example 32, 5-(3-Bromo-phenyl)-7-cyclopropylmethyl-7,8-dihydro-imidazo[1,5-a]pyrazin-6-one hydrochloride]
43 to 45 | O=C1C(c2cccc(Br)c2)n2cncc2CN1Cc1ccsc1 (stereo not shown) [Example 50, 5-(3-Bromo-phenyl)-7-thiophen-3-ylmethyl-7,8-dihydro-imidazo[1,5-a]pyrazin-6-one]
50 to 54 | O=C1C(c2cccc(Br)c2)n2cncc2CN1Cc1cccnc1 (stereo not shown) [Example 52, 5-(3-Bromo-phenyl)-7-pyridin-3-ylmethyl-7,8-dihydro-imidazo[1,5-a]pyrazin-6-one]
52 to 56 | O=C1C(c2cccc(Br)c2)n2cncc2CN1Cc1ccccn1 (stereo not shown) [Example 53, 5-(3-Bromo-phenyl)-7-pyridin-2-ylmethyl-7,8-dihydro-imidazo[1,5-a]pyrazin-6-one]
50 to 54 | O=C1C(c2cccc(Br)c2)n2cncc2CN1Cc1ccncc1 (stereo not shown) [Example 54, 5-(3-Bromo-phenyl)-7-pyridin-4-ylmethyl-7,8-dihydro-imidazo[1,5-a]pyrazin-6-one]
105 to 108 | Cc1ccc(CN2Cc3cncn3CC2=O)cc1 [Example 64, 7-(4-Methyl-benzyl)-7,8-dihydro-imidazo[1,5-a]pyrazin-6-one]
112 to 114 | O=C1Cn2cncc2CN1Cc1ccc(F)cc1 [Example 65, 7-(4-Fluoro-benzyl)-7,8-dihydro-imidazo[1,5-a]pyrazin-6-one]
163 to 165 | N#Cc1cccc(C2C(=O)N(Cc3ccccc3)Cc3cncn32)c1 (stereo not shown) [Example 66]
162 to 164 | COc1ccc(CN2Cc3cncn3C(c3ccc(-c4ccsc4)cc3)C2=O)cc1 (stereo not shown) [Example 75, 7-(4-Methoxy-benzyl)-5-(4-thiophen3-yl-phenyl)-7,8-dihydro-imidazo[1,5-a]pyrazin-6-one]
189 to 190 | O=C1C(c2ccc(-c3ccccc3)cc2)n2cncc2CN1Cc1ccc(F)cc1 (stereo not shown) [Example 78, 5-Biphenyl-4-yl-7-(4-fluoro-benzyl)-7,8-dihydro-imidazo[1,5-a]pyrazin-6-one]
66 to 70 | CC1(c2ccc(C#N)cc2)C(=O)N(Cc2ccc(F)cc2)Cc2cncn21 (stereo not shown) [Example 85, 4-[7-(4-Fluoro-benzyl)-5-methyl-6-oxo-5,6,7,8-tetrahydro-imidazo[1,5-a]pyrazin-5-yl]-benzonitrile]
78 to 82 | C[C@@H](c1ccc(F)cc1)N1Cc2cncn2C(C)(c2ccc(C#N)cc2)C1=O (stereo partly shown) [Example 86, 4(7-[(s)-1-(4-Fluoro-phenyl)-ethyl]-5-methyl-6-oxo-5,6,7,8-tetrahydro-imidazo[1,5-a]pyrazin-5-yl]-benzonitrile]
166 to 168 | O=C1N(Cc2ccc(F)cc2)Cc2cncn2C1(Cc1ccccc1)c1ccc(Br)cc1 (stereo not shown) [Example 87, 5-Benzyl-5-(4-bromo-phenyl)-7-(4-fluoro-benzyl)-7,8-dihydro-imidazo[1,5-a]pyrazin-6-one]
246 to 248 | N#Cc1ccc(C2(Cc3ccccc3)C(=O)N(Cc3ccccc3)Cc3cncn32)cc1 (stereo not shown) [Example 88, 4-(5,7-Dibenzyl-6-oxo-5,6,7,8-tetrahydro-imidazol[1,5-a]pyrazin-5-yl)-benzonitrile]
156 to 158 | N#Cc1ccc(C2(Cc3ccccc3)C(=O)N(CC3CC3)Cc3cncn32)cc1 (stereo not shown) [Example 89, 4-(5-Benzyl-7-cyclopropylmethyl-6-oxo-5,6,7,8-tetrahydro-imidazo[1,5-a]pyrazin-5-yl)-benzonitrile]
65 | N#Cc1ccc(C2CC(=O)N(Cc3ccccc3)Cc3cncn32)cc1 (stereo not shown) [Example 92, 4-(8-Benzyl-7-oxo-6,7,8,9-tetrahydro-5H-imidazo[1,5-a][1,4]diazepin-5-yl)-benzonitrile]
178 to 180 | N#Cc1ccc(C2CC(=O)N(CC3CC3)Cc3cncn32)cc1 (stereo not shown) [Example 93, 4-(8-Cyclopropylmethyl-7-oxo-6,7,8,9-tetrahydro-5H-imidazo[1,5-a][1,4]diazepin-5-yl)-benzonitrile]
